Results reported in publication PMC4921109 (Cancer Chemotherapy and Pharmacology, 2016).
“Also recorded” adds a separate entry of the source. Read-outs that look alike come from different tables or passages of the source.

Tests used:
[1] = Phase Ib drug–drug interaction study: safety and tolerability (adverse events); type: in vivo, human
Description: This was a phase Ib, open-label, four-arm, parallel design, multicenter, multiple-dose study in healthy female subjects of non-childbearing potential. Subjects were randomly assigned to 1 of 4 treatment arms in a 1:1:1:1 ratio with stratification according to AAG concentration [low (0.5–0.73 g/L), medium (0.74–0.96 g/L), or high (0.97–1.2 g/L)].

[2] = vismodegib; ANOVA, back-transformed; day 7 (day 11 in Arm B)
[3] = unbound vismodegib; geometric mean (CV %); 2, 6 and 12 h postdose on day 7 (day 11 in Arm B); vismodegib 150 mg QD
Description: PK parameters were calculated using noncompartmental methods with WinNonlin (Pharsight Corporation, Mountain View, CA; Version 5.2); the PK analysis used actual times as recorded on the case report form.

[4] = cited from earlier work
[5] = system: Caco-2 cells; conditions: cited from earlier work
[6] = system: human hepatocytes; parameters: method as in PMID 19845436; conditions: 3-h incubation with human hepatocytes; cited from earlier work
[7] = parameters: method as in PMID 19845436; conditions: cited from earlier work
[8] = clinical; conditions: female, human, plasma, po, 150 mg
[9] = cited from earlier work; remark: listed apart in the source
[10] = system: P-glycoprotein (P-gp); conditions: MDCK cells overexpressing P-gp; cited from earlier work
[11] = system: CYP2C9 and CYP3A4; conditions: cited from earlier work
[12] = cited from earlier work; remark: listed apart in the source
[13] = number of subjects (percent), safety population

CS(=O)(=O)c1ccc(C(=O)Nc2ccc(Cl)c(-c3ccccn3)c2)c(Cl)c1 [Vismodegib, 2-chloro-N-(4-chloro-3-(pyridin-2-yl)phenyl)-4-(methylsulfonyl) benzamide]
Most frequent AEs related to vismodegib: constipation ([1]; across the study): 10.5% | Most frequent AEs related to vismodegib: diarrhea ([1]; across the study): 8.0% | Most frequent AEs related to vismodegib: headache ([1]; across the study): 10.5% | Most frequent AEs related to vismodegib: nausea ([1]; across the study): 9.3% | Treatment-emergent AE: Abdominal distention [1, 13]: 1 (4.5) | Treatment-emergent AE: Abdominal pain [1, 13]: 1 (4.5) | Treatment-emergent AE: Constipation [1, 13]: 4 (18.2) | Treatment-emergent AE: Diarrhea [1, 13]: 1 (4.5) | Treatment-emergent AE: Dizziness [1, 13]: 2 (9.1) | Treatment-emergent AE: Flatulence [1, 13]: 1 (4.5) | Treatment-emergent AE: Headache [1, 13]: 4 (18.2) | Treatment-emergent AE: Nausea [1, 13]: 2 (9.1) | Treatment-emergent AE: Pruritus [1, 13]: 0 | Treatment-emergent AE: Rash [1, 13]: 0 | Number of treatment-emergent AEs considered related to vismodegib ([1]; of the 127 treatment-emergent AEs): 92 | Geometric LS mean of AUC0–24h at steady state [2]: 402 µM·h | Css,ave,u (average unbound plasma concentration at steady state) [3]: 0.150 (50.2) µmol/L | Decrease in solubility from pH 2 to 7 [4]: 10,000 fold | Permeability [5]: high permeability | Parent remaining [6]: 96% | Predicted preclinical efficacious levels (unbound concentration range required for efficacy) [7]: 0.042 to 0.068 µM | AUC(0-t) [8]: 140 µM·h | Cmax [8]: 7 µM | Tmax [8]: 6 h | Absolute bioavailability at steady state [9]: less than 10% | Change in steady-state plasma concentrations with dose ([9]; daily dose increased from 150 to 270 or 540 mg): no increase | Increase in total clearance with multiple dosing ([9]; healthy subjects): 81% | Oral steady-state AUC0–24h after multiple dosing compared with AUC from zero to infinity after a single dose ([9]; healthy subjects): approximately eightfold lower | PK variability explained by AAG levels ([9]; patients): > 70% | PK variability explained by AAG levels ([9]; ref data on file): > 70% | Terminal elimination half-life ([9]; single dose): 288 h | P-gp substrate status [10]: weak substrate of P-gp; also recorded: P-glycoprotein (P-gp) substrate | Metabolizing enzymes [11]: primarily metabolized by CYP2C9 and CYP3A4

COC(=O)N[C@H](C(=O)N[C@@H](Cc1ccccc1)[C@@H](O)CN(Cc1ccc(-c2ccccn2)cc1)NC(=O)[C@@H](NC(=O)OC)C(C)(C)C)C(C)(C)C [atazanavir]
Change in bioavailability on co-administration of the PPI lansoprazole [12]: large reduction

CC(=O)N1CCN(c2ccc(OCC3COC(Cn4ccnc4)(c4ccc(Cl)cc4Cl)O3)cc2)CC1 (centres unmarked) [ketoconazole]
Impairment of absorption by acid-reducing agents [12]: more than 90%
